Assay results published in patent US9546354B2, “Z cells activated by zinc finger-like protein and uses thereof in cancer treatment” (National Cheng Kung University, priority 2014, dated 2017).
“Also recorded” adds a separate entry of the source. No end group written: not given here. TMR = tetramethylrhodamine label

What was measured:
[1] = tested on: Z cell function; test: screen of more than 300 compounds for boosting Z cell function; details: alone or in combination with a Zfra peptide
Description: In this example, more than 300 hundred compounds were screened for their activities in boosting Z cell function either alone or in combination with a Zfra peptide. From this collection of compounds, CI-4AS-1 (androgen receptor agonist) and (±)-Blebbistatin (inhibitor for non-muscle myosin II ATPase) were identified.

[2] = tested on: spleen Z cells; test: level of TMR-Zfra-positive spleen Z cells by cell sorting; format: in vivo; details: Zfra-treated BALB/c mice inoculated with B16F10 melanoma
Experimental: (§1) FIG. 3 is a diagram showing identification of Z spleen cells. (A) Nude mice were pre-injected with sterile MilliQ water or a mixture of Zfra1-31 (2 mM in 100 μl sterile water) in 4 consecutive weeks, followed by inoculating malignant breast MDA-MB-231 cells on both flanks 7 and 50 days later. Tumor sizes on both flanks (blue and red) were measured daily. […] These mice were sacrificed, and TMR-Zfra-positive spleen cells were isolated by cell sorting. TMR-Zfra-positive Z spleen cells were around 25% in Zfra-treated mice. […] In B16F10 melanoma-growing BALB/c mice, spleen Z cells dropped down to 3.3% or even lower. In untreated control mice, Z cells are around 25-29%.
Next, the levels of spleen Z cells in mice pre-treated with full-length Zfra1-31 or control and inoculated with B16F10 melanoma cells were examined. B16F10-growing BALB/c mice had low levels of Z cells, which were 3.3% or lower (FIG. 3C). In contrast, Zfra-treated mice had 26.1% Z cells (FIG. 3C). […] These cells are Hyal-2 positive. The observations indicate that Z cells (e.g., Hyal-2 positive spleen cells) are depleted in mice having cancer growths, and that treatment with Zfra increases the number of Z cells in mice having cancer growths.
Spleen cells from the mice were isolated and stained with synthesized peptide TMR-Zfra1-31 (Tetramethylrhodamine-Zfra, excitation 550 nm, emission 573 nm) for 30 minutes on ice.

[3] = tested on: DsRed-Hyal-2; test: Förster resonance energy transfer (FRET) analysis; format: binding; details: versus EGFP and DsRed controls, n=10, p<0.005
[4] = tested on: melanoma B16F10 cells; test: melanoma B16F10 growth in pre-injected BALB/c mice; format: in vivo; details: pre-injection before inoculation, immune competent BALB/c mice
Experimental: as §1
FIG. 4A is a diagram showing in vivo animal models design to test the anticancer efficacy of chemical drugs and “Z cells” activation. Immune competent BALB/c mice or immune deficient NOD-SCID mice were pre-injected with CI-4AS-1 or (±)-Blebbistatin with or without zinc finger-like Zfra4-10 peptide once per week for 3 consecutive weeks, and then inoculated with 2.5×10^6 or 1.5×10^6 malignant melanoma B16F10 cells at both right and left flanks. After 60 days, spleen cells transferred were performed from BALB/c to NOD-SCID mice via tail veins injection. Thirty days later, the recipient mice were inoculated with 1.5×10^6 malignant melanoma B16F10 cells at both right and left flanks. […]

[5] = tested on: breast MDA-MB-231 cells; test: breast MDA-MB-231 xenograft growth in pre-injected nude mice; format: in vivo; details: pre-injected once per week for 4 weeks
Experimental: as §1

[6] = molecular target: T1, membrane hyaluronidase Hyal-2 (Mus musculus, UniProt O35632); test: staining of spleen cells with TMR-Zfra and Hyal-2 antibody, epifluorescence and confocal microscopy; format: binding, NOD-SCID mice; details: 30 minutes on ice
T1 construct: spleen cells were isolated from immune deficient NOD-SCID mice; from tissue; host or cells: spleen cells of NOD-SCID mice
T1 sequence (O35632 21-448): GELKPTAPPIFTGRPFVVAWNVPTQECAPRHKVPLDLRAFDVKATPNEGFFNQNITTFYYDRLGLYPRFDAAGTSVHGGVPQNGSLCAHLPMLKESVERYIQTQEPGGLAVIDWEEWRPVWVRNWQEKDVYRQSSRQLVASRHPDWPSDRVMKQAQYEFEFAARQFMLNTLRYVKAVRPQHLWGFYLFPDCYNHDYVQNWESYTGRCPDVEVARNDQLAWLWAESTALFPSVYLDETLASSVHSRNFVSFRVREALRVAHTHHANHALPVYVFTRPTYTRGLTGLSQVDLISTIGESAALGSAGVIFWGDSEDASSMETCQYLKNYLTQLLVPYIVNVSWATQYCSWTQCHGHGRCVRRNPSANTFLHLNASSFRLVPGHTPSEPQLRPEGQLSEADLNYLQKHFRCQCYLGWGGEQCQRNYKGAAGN
Experimental: FIG. 2 includes photos showing the identification of Zfra^+ Hyal-2^+ spleen cells. A and B: Spleen cells of NOD-SCID mice were isolated and stained with synthesized peptide TMR-Zfra1-31 and Hyal-2 (green fluorescence) antibody for 30 minutes on ice, and then fixed with 4% formaldehyde.
In this example, spleen cells were isolated from immune deficient NOD-SCID mice, which are deficient in T and B lymphocytes and NK cells. The isolated spleen cells were stained with antibody against Hyal-2 (green) and TMR-Zfra (Zfra1-31 labeled with red fluorescent tetramethylrodamine) for 30 minutes on ice, and then fixed with 4% formaldehyde (FIG. 2). […] These Hyal-2^+ Zfra^+ positive cells are interchangeably referred to as “Z cells,” for cells interacting with Zfra.

[7] = tested on: WWOX; test: Ser14 phosphorylation of WWOX and Wwox protein level in the lung of treated mice; format: in vivo, BALB/c mice
Experimental: (§2) FIG. 1 includes photos showing that Zfra suppresses melanoma B16F10 metastasis to the lung and cancer stemness. BALB/c mice were pre-injected with sterile MilliQ water or Zfra4-10 (1 mM in 100 μl sterile water) in 3 consecutive weeks. Post-treatment for a week, these mice were inoculated with melanoma B16F10 cells via tail veins (2×10^5 cells in 100 μl PBS). Control mice died 50 days later, and Zfra-treated mice were alive and sacrificed for examination. A: Shown on the lung surface are the metastatic tumor foci as dark areas in control mice. […] No metastases were found in other organs in both mice. C: Zfra suppressed Ser14 phosphorylation of […] (or Wwox) in the lung of Zfra treated mice (˜65% suppression).
(§3) Importantly, cancer cell stemness, as determined by the expression of pluripotent stem cell markers Oct-4 and SSEA-4, was blocked in the lungs of Zfra4-10 treated mice (FIG. 1D). Thus, when WWOX phosphorylation at Ser14 is blocked by Zfra, cancer cell metastasis and stemness is prevented.

[8] = tested on: Z cells; test: Z cell activation by Zfra peptide; format: cell-based, BALB/c mice; details: in vivo and in vitro
Experimental: Briefly, spleen cells were isolated from BALB/c mice and then cultured overnight. These cells were stimulated with Zfra4-10 peptide (10 μM) for 16-24 hr, and then stained with TMR-Zfra, followed by isolating the cells using a cell sorter. Z+ and Z− cell populations were counted and injected via tail veins of BALB/c. […] FIG. 5.

[9] = tested on: melanoma B16F10 cells; test: melanoma B16F10 lung metastasis after tail-vein inoculation in pre-injected BALB/c mice; format: in vivo
Experimental: as §2
BALB/c mice were pre-injected with sterile MilliQ water or Zfra4-10 (1 mM in 100 μl sterile water) once per week in three consecutive weeks. Following one week post-treatment, the mice were inoculated with melanoma B16F10 cells via tail veins (2×10^5 cells in 100 μl PBS).
as §3

CI-4AS-1
outcome of screen for boosting Z cell function [1]: identified

Zfra: Zfra peptide, form not stated at the place (Zfra1-31 or Zfra4-10) (MSSRRSSSCKYCEQDFRAHTQKNAATPFLAN)
TMR-Zfra-positive Z spleen cells [2]: around 25% | binding to Hyal-2 by FRET [3]: binding of Zfra to membrane Hyal-2 | growth of melanoma B16F10 in BALB/c mice [4]: completely blocked

Cc1ccc2c(c1)C(=O)C1(O)CCN(c3ccccc3)C1=N2 (racemic) [(±)-Blebbistatin]
outcome of screen for boosting Z cell function [1]: identified

NH-MSSRRSSSCKYCEQDFRAHTQKNAATPFLAN-COOH (H-MSSRRSSSCKYCEQDFRAHTQKNAATPFLAN-OH; cysteine pairing not given here) [Zfra1-31]
TMR-Zfra-positive Z spleen cells [2]: 26.1% | growth of breast MDA-MB-231 xenografts [5]: resisted the growth

TMR-Zfra1-31: Zfra1-31 labeled with red fluorescent tetramethylrodamine ({TMR}-MSSRRSSSCKYCEQDFRAHTQKNAATPFLAN; cysteine pairing not given here)
binding to or colocalization with membrane Hyal-2 on spleen cells [6]: bound to membrane hyaluronidase Hyal-2 | binding to or colocalization with membrane Hyal-2 on spleen cells ([6]; listed as TMR-Zfra): colocalization of both proteins on the cell surface

RRSSSCK [Zfra4-10]
Wwox protein levels ([7]; lung of Zfra treated mice): not suppressed | suppression of Ser14 phosphorylation of WWgre (or Wwox) in the lung ([7]; lung of Zfra treated mice, FIG. 1C): ~65% | Ser14 phosphorylation of WWOX (in words) ([7]; lung of treated mice, FIG. 1C): inhibition of Ser14 phosphorylation of WWOX | Z cell activation [8]: sufficient to induce Z cell activation both in vivo and in vitro | growth of melanoma B16F10 in BALB/c mice [4]: prevented melanoma B16F10 growth | cancer cell stemness (pluripotent markers Oct-4 and SSEA-4) in the lung ([9]; B16F10 cells in the lung, FIG. 1D): suppressed the stemness; also recorded: blocked | melanoma B16F10 metastasis to the lung ([9]; Zfra4-10 1 mM in 100 μl once per week for 3 weeks before 2×10^5 B16F10 cells via tail veins): Metastasis was not found; also recorded: suppressed melanoma B16F10 metastasis to the lung | survival of mice ([9]; when control mice died 50 days after inoculation of B16F10 cells): remained alive

EGFP-Zfra: EGFP-tagged Zfra used in FRET analysis with DsRed-Hyal-2 (MSSRRSSSCKYCEQDFRAHTQKNAATPFLAN; cysteine pairing not given here; also: EGFP tag fused, end not given here) [reference compound]
binding to Hyal-2 by FRET [3]: significant binding
